Measured values: PMC12472947 (Pharmaceuticals, 2025)
Entries after “also recorded” stand apart in the source; their conditions may differ. Marks after values point to notes of the source that are not given here.

Experiments:
[1] = target: electric eel AChE [EeAChE] (Electrophorus electricus, UniProt O42275); assay: biochemical; format: biochemical; details: for IC50: Electric eel AChE, Ellman method, read-out: IC50(nM) ± SD AChE (EeAChE); for SI: Selectivity Index = EqBChE IC50/EeAChE IC50
Method: (§1) The anticholinesterase activity was determined using Ellman’s method, adapted as follows. […] Subsequently, 60 μL of 5,5′-dithiobis(2-nitrobenzoic acid) (DTNB, 1.1 mM) and 30 μL of enzyme solution (electric eel AChE [EeAChE], human AChE [hAChE], or equine serum BChE [EqBChE], 0.20 U/mL) containing 1 mg/mL bovine serum albumin (BSA) were added. […] Enzyme activity was calculated as the percentage relative to untreated controls, subtracting the blank reference. IC50 values were derived via non-linear regression analysis of dose–response curves (Figure S4) using GraphPad Prism v7.0.

[2] = target: T1, hMAO-B (Homo sapiens, UniProt P27338); assay: biochemical; format: biochemical
T1 construct: purchased Sigma-Aldrich, Gillingham, UK
T1 sequence (P27338 1-520): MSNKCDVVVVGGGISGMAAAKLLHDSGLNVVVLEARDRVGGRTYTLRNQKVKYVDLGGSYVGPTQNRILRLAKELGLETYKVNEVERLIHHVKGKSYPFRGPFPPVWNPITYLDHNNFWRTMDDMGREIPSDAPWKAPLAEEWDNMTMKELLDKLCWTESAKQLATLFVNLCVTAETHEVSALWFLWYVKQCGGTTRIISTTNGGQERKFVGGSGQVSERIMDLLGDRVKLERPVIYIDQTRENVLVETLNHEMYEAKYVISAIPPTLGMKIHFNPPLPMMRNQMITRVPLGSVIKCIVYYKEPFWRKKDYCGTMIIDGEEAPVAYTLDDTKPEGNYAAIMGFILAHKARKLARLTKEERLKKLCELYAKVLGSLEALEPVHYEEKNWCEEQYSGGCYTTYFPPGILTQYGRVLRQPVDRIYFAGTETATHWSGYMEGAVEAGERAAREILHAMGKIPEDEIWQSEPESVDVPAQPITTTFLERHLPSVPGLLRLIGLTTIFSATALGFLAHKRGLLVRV
Method: The activity of human recombinant membrane-bound monoamine oxidase isoforms A and B (MAO-A/B) (Sigma-Aldrich, Gillingham, UK) in 50 mM potassium phosphate buffer (pH 7.5) was determined by measuring hydrogen peroxide production coupled to the fluorescent dye Amplex Red (Sigma-Aldrich, UK) at a final concentration of 50 μM, in the presence of horseradish peroxidase (HRP, 2.5 U/mL). This coupling reaction generates the fluorescent product resorufin, which was quantified at 30 °C using a fluorescence plate reader.
Reactions were initiated by adding the substrate and dye after a 30 min preincubation of the inhibitor with the enzyme. Data were analyzed using a three-parameter equation in GraphPad Prism 7.0 (San Diego, USA). Each reported value represents the mean of at least two independent determinations.

[3] = tested on: H2O2-damaged SH-SY5Y cells; assay: In vitro neuroprotection against H2O2 in SH-SY5Y (MTT); details: for viability at 12.5 µM: Homo sapiens, SH-SY5Y, read-out: Cell viability (% of control)
Method: For the neuroprotection assay, the cells previously cultured (Section 3.4.1) were seeded in 96-well plates at a density of 5 × 10^4 cells/well in a volume of 200 µL. The plates were incubated at 37 °C containing 5% CO2 for 24 h. After 24 h, the medium was replaced with the test solutions. […] Finally, the test solutions were removed, the cells were washed with PBS pH 7.4, and the H2O2 solution was added and maintained in contact with the cells for 24 h. After 24 h exposure, the neuroprotective capacity was assessed through cell viability using the MTT assay protocol previously described in Section 3.4.3 [52, 53].

[4] = Cytotoxicity (neurotoxicity) MTT assay in SH-SY5Y; format: cell-based; details: human, SH-SY5Y neuroblastoma cells; for viability at 24 h, 12.5 µM / viability at 24 h, 25 µM / viability at 24 h, 50 µM: MTT, read-out: Cell viability (% of control); for viability at 24 h: up to 25 μM, read-out: cell viability
Method: (§2) The immortalized human neuroblastoma cell line (SH-SY5Y–ATCC: CRL-2226; BCRJ:0223) was used to evaluate cytotoxicity. The cell line was cultured in Dulbecco’s Modified Eagle’s Medium and F12 in a 1:1 ratio (DMEM:F12; Sigma-Aldrich code 0697, Brazil) supplemented with 10% fetal bovine serum (FBS; Sigma-Aldrich code F2442, Brazil) and 1% streptomycin/penicillin (10,000 U/mL and 10,000 μg/mL, respectively; Nova Biotecnologia code BR30110-01, Cotia, SP, Brazil) and incubated at 37 °C with 5% CO2. The culture medium was replaced every 48 h, until the cells reached semi-confluence (≥70%). Cell passage was carried out with the aid of trypsin-EDTA/0.25% solution (Nova Biotecnologia, Brazil) and divided between 5 or 8 mL culture volumes depending on the respective bottles (25 or 75 cm^2) used.
(§3) The in vitro cytotoxicity assay evaluated cell viability using the [3-(4,5-dimethylthiazol-2yl)-2,5-diphenyl tetrazolium] bromide (MTT) reduction assay. Cells were seeded at an initial density of 5.0 × 10^4 cells/well in 96-well plates in a volume of 200 µL. […] In the next step, the culture medium was replaced by the sample solution previously described (Section 3.4.2). After 24 h exposure, the medium was replaced with 100 μL of MTT in phosphate-buffer saline (PBS), pH 7.4, at a concentration of 0.5 mg.mL^−1/well and the plates were incubated for an additional 3 h. Then, the MTT solution was removed, and 100 μL of DMSO was added to solubilize the formazan crystals. The cell viability was measured by absorbance at 562 nm using a Microplate Absorbance Reader (Kasuaki, Brazil). All concentrations tested were evaluated in nine replicates (n = 9). The variation in results was observed using ANOVA followed by Tukey’s test for multiple comparisons through GraphPad Prism v5^TM with a significance level of p < 0.05.

[5] = tested on: SH-SY5Y neuroblastoma cells; assay: Cytotoxicity (neurotoxicity) MTT assay in SH-SY5Y; format: cell-based; details: up to 50 µM
Method: as §2, §3

[6] = target: T2, equine serum BChE [EqBChE] (Equus caballus, UniProt P81908); assay: biochemical; details: Ellman method, read-out: IC50(nM) ± SD BChE (EqBChE)
T2 construct: equine serum BChE [EqBChE]; from tissue; host or cells: equine serum
Method: as §1

[7] = target: human AChE [hAChE] (Homo sapiens, UniProt P22303); assay: biochemical; details: for IC50: Human AChE, Ellman method, read-out: IC50(nM) ± SD AChE (hAChE) (converted); for SI: SI = EqBChE IC50/hAChE
Method: as §1

human AChE [hAChE], sequence (P22303 32-614): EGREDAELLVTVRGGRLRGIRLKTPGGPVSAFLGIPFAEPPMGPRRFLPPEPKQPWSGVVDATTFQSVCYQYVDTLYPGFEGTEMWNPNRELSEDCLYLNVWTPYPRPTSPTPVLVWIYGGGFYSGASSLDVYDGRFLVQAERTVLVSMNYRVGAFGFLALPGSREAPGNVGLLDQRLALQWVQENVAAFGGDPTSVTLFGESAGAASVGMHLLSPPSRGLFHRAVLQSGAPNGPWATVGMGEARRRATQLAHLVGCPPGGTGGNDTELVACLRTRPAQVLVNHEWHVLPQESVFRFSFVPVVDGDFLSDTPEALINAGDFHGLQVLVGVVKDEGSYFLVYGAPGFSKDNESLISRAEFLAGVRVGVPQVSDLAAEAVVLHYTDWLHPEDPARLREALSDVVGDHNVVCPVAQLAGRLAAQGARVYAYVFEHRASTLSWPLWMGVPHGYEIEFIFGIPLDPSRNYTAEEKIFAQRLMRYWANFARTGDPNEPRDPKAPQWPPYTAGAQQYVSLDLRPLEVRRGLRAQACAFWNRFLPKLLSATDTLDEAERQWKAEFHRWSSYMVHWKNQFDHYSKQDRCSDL
electric eel AChE [EeAChE], sequence (O42275 24-633): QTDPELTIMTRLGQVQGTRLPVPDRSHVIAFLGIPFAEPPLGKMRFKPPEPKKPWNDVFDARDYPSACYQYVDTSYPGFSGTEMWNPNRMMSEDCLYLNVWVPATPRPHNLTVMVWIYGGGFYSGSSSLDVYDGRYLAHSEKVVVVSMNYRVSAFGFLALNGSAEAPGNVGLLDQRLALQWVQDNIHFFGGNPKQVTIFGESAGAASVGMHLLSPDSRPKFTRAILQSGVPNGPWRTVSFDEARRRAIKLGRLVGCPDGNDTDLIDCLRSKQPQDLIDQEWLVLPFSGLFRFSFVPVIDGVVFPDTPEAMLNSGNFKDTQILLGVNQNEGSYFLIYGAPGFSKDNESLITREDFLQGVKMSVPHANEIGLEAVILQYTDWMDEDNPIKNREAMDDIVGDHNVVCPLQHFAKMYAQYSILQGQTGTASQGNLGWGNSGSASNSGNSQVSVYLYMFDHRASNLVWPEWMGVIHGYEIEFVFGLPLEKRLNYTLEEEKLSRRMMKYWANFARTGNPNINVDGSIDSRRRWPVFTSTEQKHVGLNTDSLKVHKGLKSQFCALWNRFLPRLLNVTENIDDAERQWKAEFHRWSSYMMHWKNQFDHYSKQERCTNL
T2 sequence (P81908 whole entry): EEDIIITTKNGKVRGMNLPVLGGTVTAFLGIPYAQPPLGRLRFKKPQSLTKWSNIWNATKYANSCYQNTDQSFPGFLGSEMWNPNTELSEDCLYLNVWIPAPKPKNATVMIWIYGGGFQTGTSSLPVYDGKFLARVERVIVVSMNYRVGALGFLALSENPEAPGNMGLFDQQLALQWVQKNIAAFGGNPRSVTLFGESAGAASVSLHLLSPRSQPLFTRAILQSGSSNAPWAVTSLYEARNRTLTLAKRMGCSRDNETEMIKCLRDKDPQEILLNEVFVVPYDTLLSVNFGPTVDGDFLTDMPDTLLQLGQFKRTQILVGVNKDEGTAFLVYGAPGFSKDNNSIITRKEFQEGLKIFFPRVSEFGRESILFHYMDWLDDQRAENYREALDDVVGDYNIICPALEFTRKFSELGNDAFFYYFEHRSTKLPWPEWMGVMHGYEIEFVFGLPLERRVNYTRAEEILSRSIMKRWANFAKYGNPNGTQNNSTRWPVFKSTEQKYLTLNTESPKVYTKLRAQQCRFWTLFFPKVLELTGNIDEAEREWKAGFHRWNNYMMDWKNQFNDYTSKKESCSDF

| Compound | IC50 [1] [nM] | SI [1] | inhibition at 1 µM ([2]; test concentration of 1 µM, read-out: Percentage of MAO-B inhibition ± SEM) [%] | neuroprotection against H2O2-induced oxidative stress ([3]; 12.5 µM) | viability at 12.5 µM [3] [%] | viability at 24 h, 12.5 µM [4] [%] | viability at 24 h, 25 µM [4] [%] | viability at 24 h, 50 µM [4] [%] | viability at 24 h [4] [%] | neurotoxicity [5] | IC50 [6] [nM] | IC50 [7] [nM] | SI [7] | IC50 [2] [µM] | MAO-B/A selectivity ratio [2] |
| --- | --- | --- | --- | --- | --- | --- | --- | --- | --- | --- | --- | --- | --- | --- | --- |
| O=c1oc2cc(OCCN3CCCCC3)ccc2cc1-c1cn(Cc2ccccc2)nn1 [Compound 1h, 3-(1-Benzyl-1H-1,2,3-triazol-4-yl)-7-(2-(piperidin-1-yl)ethoxy)-2H-chromen-2-one] | 6.03 ± 0.62 | 632 | 11.3 ± 1.9 | neuroprotective effects | 88 | 121 | 121 | 111 | ≥ 70 | non-neurotoxic; also recorded: no neurotoxicity | 3790 ± 400 | 115 | 33 | – | – |
| O=c1oc2cc(OCCCN3CCCCC3)ccc2cc1-c1cn(Cc2ccccc2)nn1 [Compound 1q, 3-(1-Benzyl-1H-1,2,3-triazol-4-yl)-7-(3-(piperidin-1-yl)propoxy)-2H-chromen-2-one] | 1950 ± 86 | ~2 ^e,f | – | – | 68 | 99 | 105 | 84 | ≥ 70 | non-neurotoxic | 3560 ± 190 | 1410 | ~2 ^e,f | 1.69 | greater than 18 fold |
